According to the NIST ThermoML archive (doi:10.1021/je700021f):
Numbers after ± are expanded uncertainties.

How the values were obtained:
[1] = 101 kPa, Liquid, Pulse-echo method
[2] = xn = mol fraction of the nth substance listed; settings: 101 kPa, Liquid, Pulse-echo method, x1 = 1

CCCCCCCCCCl [1-chlorononane]
[1]
Settings	speed of sound [m/s]
293.15 K	1297.2 ± 3.4
298.15 K	1278.2 ± 3.3
303.15 K	1259.5 ± 3.3
308.15 K	1240.9 ± 3.3
313.15 K	1222.5 ± 3.2
318.15 K	1204.3 ± 3.2
323.15 K	1186.3 ± 3.2
328.15 K	1168.4 ± 3.1
333.15 K	1150.7 ± 3.1
338.15 K	1133.2 ± 3.1
343.15 K	1115.9 ± 3.1
348.15 K	1098.8 ± 3
353.15 K	1081.9 ± 3
358.15 K	1065.1 ± 3
363.15 K	1048.5 ± 3
368.15 K	1032.2 ± 2.9
373.15 K	1015.9 ± 2.9
378.15 K	999.1 ± 2.9
383.15 K	982.7 ± 2.9
388.15 K	966.4 ± 2.8
393.15 K	950.3 ± 2.8
398.15 K	934.3 ± 2.8
403.15 K	918.4 ± 2.8
408.15 K	902.6 ± 2.8
413.15 K	887 ± 2.7
418.15 K	871.4 ± 2.7
423.15 K	856 ± 2.7

CCCCCCCCC [nonane]
[1]
Settings	speed of sound [m/s]
293.15 K	1227.3 ± 3.2
298.15 K	1207.2 ± 3.2
303.15 K	1187.2 ± 3.2
308.15 K	1167.3 ± 3.1
313.15 K	1147.5 ± 3.1
318.15 K	1127.8 ± 3.1
323.15 K	1108.2 ± 3.1
328.15 K	1088.7 ± 3
333.15 K	1069.3 ± 3
338.15 K	1050 ± 3
343.15 K	1030.8 ± 2.9
348.15 K	1011.8 ± 2.9
353.15 K	992.8 ± 2.9
358.15 K	973.9 ± 2.9
363.15 K	955.2 ± 2.8
368.15 K	936.5 ± 2.8
373.15 K	917.9 ± 2.8
378.15 K	899.5 ± 2.8
383.15 K	881.1 ± 2.7
388.15 K	862.9 ± 2.7
393.15 K	844.7 ± 2.7
398.15 K	826.7 ± 2.7
403.15 K	808.8 ± 2.6
408.15 K	790.9 ± 2.6
413.15 K	773.2 ± 2.6
418.15 K	755.6 ± 2.6
423.15 K	738 ± 2.5

CCCCCCCCC [nonane] + CCCCCCCCCCl
[2]
Settings	speed of sound [m/s]
293.15 K	1227.3 ± 3.2
298.15 K	1207.2 ± 3.2
303.15 K	1187.2 ± 3.2
308.15 K	1167.3 ± 3.1
313.15 K	1147.5 ± 3.1
318.15 K	1127.8 ± 3.1
323.15 K	1108.2 ± 3.1
328.15 K	1088.7 ± 3
333.15 K	1069.3 ± 3
338.15 K	1050 ± 3
343.15 K	1030.8 ± 2.9
348.15 K	1011.8 ± 2.9
353.15 K	992.8 ± 2.9
358.15 K	973.9 ± 2.9
363.15 K	955.2 ± 2.8
368.15 K	936.5 ± 2.8
373.15 K	917.9 ± 2.8
378.15 K	899.5 ± 2.8
383.15 K	881.1 ± 2.7
388.15 K	862.9 ± 2.7
393.15 K	844.7 ± 2.7
398.15 K	826.7 ± 2.7
403.15 K	808.8 ± 2.6
408.15 K	790.9 ± 2.6
413.15 K	773.2 ± 2.6
418.15 K	755.6 ± 2.6
423.15 K	738 ± 2.5
